According to ChEMBL document CHEMBL1138972, “Discovery of potent CRTh2 (DP2) receptor antagonists” (Bioorg Med Chem Lett, 2006):
Active and inactive are the calls of the source. No cut-off for these calls is given here.

Key:
[1] = Intrinsic clearance in rat hepatocytes per 10^6 cells
[2] = biological target: Voltage-gated inwardly rectifying potassium channel KCNH2 (Homo sapiens, UniProt Q12809); test: Binding affinity to hERG in HEK293 cells by radioligand binding assay; type: cell-based
[3] = biological target: T1, Prostaglandin D2 receptor 2 (Homo sapiens) (UniProt Q9Y5Y4); test: Agonist activity at CRTh2 receptor; type: functional
T1 sequence (whole entry): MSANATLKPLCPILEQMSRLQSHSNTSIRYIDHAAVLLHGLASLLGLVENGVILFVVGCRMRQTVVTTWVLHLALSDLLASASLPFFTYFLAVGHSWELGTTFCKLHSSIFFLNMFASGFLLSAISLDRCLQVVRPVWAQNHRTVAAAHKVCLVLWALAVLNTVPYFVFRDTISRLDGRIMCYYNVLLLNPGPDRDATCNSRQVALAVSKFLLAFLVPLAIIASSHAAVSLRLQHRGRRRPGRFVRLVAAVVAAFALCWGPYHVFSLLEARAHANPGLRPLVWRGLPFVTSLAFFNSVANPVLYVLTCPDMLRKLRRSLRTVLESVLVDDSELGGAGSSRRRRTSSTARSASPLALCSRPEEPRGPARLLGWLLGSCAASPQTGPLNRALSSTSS

[4] = biological target: T2, Prostaglandin D2 receptor (Homo sapiens) (UniProt Q13258); test: Binding affinity to DP1 receptor in HEK293 cells by radioligand binding assay; type: cell-based
T2 sequence (whole entry): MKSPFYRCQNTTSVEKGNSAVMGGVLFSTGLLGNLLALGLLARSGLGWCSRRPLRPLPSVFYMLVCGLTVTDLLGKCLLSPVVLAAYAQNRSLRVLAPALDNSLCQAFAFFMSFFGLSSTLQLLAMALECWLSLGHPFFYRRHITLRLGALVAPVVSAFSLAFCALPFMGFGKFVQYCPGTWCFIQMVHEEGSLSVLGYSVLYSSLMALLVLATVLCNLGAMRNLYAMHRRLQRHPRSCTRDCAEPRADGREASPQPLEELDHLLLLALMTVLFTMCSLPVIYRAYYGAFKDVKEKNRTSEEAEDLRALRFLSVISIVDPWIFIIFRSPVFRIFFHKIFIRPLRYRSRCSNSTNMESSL

[5] = biological target: T3, Prostaglandin D2 receptor 2 (Homo sapiens, UniProt Q9Y5Y4); test: Displacement of [3H]PGD2 from human CRTh2 expressed in HEK293 cells; type: cell-based
T3 sequence (Q9Y5Y4 whole entry): T1 sequence (whole entry)

[6] = Intrinsic clearance in human hepatocytes per 10^6 cells
Rattus norvegicus [7] = species on record: Rattus norvegicus; test: (§1) Volume of distribution in rat; type: ADME, organism-based; conditions: in vivo
Rattus norvegicus [8] = species on record: Rattus norvegicus; test: (§2) Half life in rat; type: ADME, organism-based; conditions: in vivo
[9] = Bioavailability in rat; type: ADME, organism-based; conditions: in vivo
[10] = Protein binding in rat plasma; type: ADME, cell-free; conditions: read-out: PPB (converted)
[11] = Clearance in dog; type: ADME, organism-based, Canis lupus familiaris; conditions: in vivo
[12] = Bioavailability in dog; type: ADME, organism-based, Canis lupus familiaris; conditions: in vivo
[13] = Half life in dog; type: ADME, organism-based, Canis lupus familiaris; conditions: in vivo
[14] = Volume of distribution in dog; type: ADME, organism-based, Canis lupus familiaris; conditions: in vivo, read-out: Vss
Cytochrome P450 2C19 = Cytochrome P450 2C19 (Homo sapiens, UniProt P33261); test: Inhibition at recombinant human CYP2C19; type: ADME
Cytochrome P450 2C9 = Cytochrome P450 2C9 (Homo sapiens, UniProt P11712); test: Inhibition at CYP2C9; type: ADME
[15] = biological target: Aldo-keto reductase family 1 member B1 (Rattus norvegicus, UniProt P07943); test: Inhibition at rat aldose reductase
[16] = biological target: Sodium-dependent serotonin transporter (Rattus norvegicus, UniProt P31652); test: Inhibition at rat serotonin transporter
[17] = biological target: Prostaglandin G/H synthase 1 (Homo sapiens, UniProt P23219); test: Inhibition of COX1
[18] = biological target: T4, Prostaglandin G/H synthase 2 (Homo sapiens, UniProt P35354); test: Inhibition of COX2
T4 sequence (P35354 whole entry): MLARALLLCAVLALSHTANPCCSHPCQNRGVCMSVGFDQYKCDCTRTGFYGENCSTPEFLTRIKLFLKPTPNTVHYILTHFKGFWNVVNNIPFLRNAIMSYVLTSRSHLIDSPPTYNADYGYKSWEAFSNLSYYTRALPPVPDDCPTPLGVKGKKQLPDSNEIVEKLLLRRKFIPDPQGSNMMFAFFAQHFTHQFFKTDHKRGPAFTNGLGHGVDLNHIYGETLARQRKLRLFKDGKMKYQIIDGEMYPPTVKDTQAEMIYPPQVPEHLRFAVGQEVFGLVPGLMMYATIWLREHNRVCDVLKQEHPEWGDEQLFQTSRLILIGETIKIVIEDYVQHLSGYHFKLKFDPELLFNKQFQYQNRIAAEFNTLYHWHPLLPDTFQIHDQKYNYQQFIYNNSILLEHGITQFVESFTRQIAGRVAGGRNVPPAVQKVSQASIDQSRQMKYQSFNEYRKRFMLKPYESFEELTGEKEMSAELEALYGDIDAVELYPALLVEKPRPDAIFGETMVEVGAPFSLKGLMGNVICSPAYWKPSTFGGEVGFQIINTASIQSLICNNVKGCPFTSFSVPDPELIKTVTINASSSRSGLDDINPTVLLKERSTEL

physchem = conditions: buffer, pH 7.4
Description: Lipophilicity, LogD at pH 7.4

Homo sapiens = species on record: Homo sapiens; test: Protein binding in human plasma; conditions: read-out: PPB (converted)
[19] = as §1; type: ADME, organism-based; conditions: in vivo, read-out: Vss
[20] = Clearance in rat; type: ADME, organism-based; conditions: in vivo
[21] = as §2; type: ADME, organism-based; conditions: in vivo
[22] = biological target: T1, Prostaglandin D2 receptor 2 (Homo sapiens); test: Activity at CRTh2 measured as calcium flux changes in HEK293 cells by FLIPR; type: functional, cell-based

Chain of Voltage-gated inwardly rectifying potassium channel KCNH2 (Q12809 whole entry): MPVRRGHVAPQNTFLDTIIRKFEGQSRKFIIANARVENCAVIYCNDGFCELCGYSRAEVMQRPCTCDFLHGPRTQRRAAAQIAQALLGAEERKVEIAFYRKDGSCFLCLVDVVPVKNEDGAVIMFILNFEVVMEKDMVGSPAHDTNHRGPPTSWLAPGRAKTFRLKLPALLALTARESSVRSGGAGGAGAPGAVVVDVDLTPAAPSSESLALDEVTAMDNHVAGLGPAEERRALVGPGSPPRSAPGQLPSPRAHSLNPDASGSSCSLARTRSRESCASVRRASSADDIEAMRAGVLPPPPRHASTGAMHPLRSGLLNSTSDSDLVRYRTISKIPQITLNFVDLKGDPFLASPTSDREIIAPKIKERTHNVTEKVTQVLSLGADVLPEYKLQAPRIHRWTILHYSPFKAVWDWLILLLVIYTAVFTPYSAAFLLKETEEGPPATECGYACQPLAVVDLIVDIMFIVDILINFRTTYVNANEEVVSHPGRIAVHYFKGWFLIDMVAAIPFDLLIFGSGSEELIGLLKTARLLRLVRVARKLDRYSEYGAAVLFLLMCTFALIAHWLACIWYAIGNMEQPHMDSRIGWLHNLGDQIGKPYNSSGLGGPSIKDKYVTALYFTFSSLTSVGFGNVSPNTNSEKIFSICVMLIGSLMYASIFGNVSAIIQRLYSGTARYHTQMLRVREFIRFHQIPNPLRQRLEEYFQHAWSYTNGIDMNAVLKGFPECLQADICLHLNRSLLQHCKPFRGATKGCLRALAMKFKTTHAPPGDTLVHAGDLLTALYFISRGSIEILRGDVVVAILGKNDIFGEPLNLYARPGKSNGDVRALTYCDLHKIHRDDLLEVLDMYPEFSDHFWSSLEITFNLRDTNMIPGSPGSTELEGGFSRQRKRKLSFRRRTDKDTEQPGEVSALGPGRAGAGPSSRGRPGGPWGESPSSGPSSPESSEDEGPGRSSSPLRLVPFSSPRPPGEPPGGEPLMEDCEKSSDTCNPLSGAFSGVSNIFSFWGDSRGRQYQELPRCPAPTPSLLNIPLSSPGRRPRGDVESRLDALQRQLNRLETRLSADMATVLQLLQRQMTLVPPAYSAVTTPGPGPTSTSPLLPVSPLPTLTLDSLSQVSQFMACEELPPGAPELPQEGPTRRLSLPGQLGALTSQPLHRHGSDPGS
Chain of Cytochrome P450 2C19 (P33261 whole entry): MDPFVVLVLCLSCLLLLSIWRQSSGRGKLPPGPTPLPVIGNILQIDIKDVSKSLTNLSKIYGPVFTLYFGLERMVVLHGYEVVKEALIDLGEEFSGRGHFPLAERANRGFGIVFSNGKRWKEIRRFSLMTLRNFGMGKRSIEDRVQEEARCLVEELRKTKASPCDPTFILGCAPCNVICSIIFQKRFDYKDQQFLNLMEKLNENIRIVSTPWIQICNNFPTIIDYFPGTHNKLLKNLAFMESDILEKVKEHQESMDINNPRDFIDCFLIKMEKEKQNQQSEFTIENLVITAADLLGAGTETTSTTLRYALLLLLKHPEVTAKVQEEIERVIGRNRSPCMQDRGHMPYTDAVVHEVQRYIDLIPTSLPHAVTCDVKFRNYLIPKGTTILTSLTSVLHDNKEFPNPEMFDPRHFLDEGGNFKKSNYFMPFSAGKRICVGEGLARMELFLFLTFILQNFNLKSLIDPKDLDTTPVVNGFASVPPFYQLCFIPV
Chain of Prostaglandin G/H synthase 1 (P23219 whole entry): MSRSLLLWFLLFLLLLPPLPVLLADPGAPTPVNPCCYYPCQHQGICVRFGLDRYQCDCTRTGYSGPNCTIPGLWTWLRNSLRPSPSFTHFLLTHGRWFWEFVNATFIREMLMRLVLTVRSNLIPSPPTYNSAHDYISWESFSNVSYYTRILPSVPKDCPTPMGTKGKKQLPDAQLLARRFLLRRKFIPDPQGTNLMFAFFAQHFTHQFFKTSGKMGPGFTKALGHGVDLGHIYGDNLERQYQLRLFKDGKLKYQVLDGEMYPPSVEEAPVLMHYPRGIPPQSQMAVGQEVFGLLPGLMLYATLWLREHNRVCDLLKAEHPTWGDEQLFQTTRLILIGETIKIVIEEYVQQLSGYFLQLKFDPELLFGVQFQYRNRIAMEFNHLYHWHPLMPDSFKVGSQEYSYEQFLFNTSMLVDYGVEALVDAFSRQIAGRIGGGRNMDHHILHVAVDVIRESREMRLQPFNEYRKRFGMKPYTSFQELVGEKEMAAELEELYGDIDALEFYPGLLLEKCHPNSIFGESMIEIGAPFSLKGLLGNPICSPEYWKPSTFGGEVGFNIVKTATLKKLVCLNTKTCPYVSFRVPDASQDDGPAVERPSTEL
Chain of Sodium-dependent serotonin transporter (P31652 whole entry): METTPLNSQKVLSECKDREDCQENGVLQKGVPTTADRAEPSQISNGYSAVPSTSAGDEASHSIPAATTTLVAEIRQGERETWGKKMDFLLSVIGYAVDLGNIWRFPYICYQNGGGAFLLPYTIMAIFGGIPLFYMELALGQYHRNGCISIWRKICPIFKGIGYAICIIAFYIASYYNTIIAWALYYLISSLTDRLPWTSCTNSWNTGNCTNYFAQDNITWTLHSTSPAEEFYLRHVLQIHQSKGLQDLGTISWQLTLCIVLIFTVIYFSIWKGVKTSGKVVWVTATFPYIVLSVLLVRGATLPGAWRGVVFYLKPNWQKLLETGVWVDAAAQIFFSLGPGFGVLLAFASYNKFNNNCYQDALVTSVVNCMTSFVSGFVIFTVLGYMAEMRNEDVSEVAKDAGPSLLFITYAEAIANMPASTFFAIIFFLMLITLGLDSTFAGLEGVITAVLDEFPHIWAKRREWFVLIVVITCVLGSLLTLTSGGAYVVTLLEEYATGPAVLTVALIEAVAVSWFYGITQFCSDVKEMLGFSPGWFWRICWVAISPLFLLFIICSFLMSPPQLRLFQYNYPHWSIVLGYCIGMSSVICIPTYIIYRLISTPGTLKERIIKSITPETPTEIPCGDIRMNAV
Chain of Cytochrome P450 2C9 (P11712 whole entry): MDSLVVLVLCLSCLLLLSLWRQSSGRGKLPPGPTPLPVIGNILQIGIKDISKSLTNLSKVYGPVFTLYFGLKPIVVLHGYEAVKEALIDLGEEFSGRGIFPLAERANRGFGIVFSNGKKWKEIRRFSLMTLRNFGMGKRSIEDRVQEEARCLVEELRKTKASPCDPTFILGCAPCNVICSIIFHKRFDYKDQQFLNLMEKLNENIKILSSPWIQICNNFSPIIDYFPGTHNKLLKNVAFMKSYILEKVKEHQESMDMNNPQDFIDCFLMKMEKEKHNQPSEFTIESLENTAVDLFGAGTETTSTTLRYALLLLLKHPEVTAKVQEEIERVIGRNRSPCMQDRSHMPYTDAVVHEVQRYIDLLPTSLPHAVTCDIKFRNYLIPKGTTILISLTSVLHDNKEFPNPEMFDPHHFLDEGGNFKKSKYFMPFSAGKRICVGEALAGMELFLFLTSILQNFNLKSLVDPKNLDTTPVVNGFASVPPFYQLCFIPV

SMILES	hepatocyte CLint [1] [µL/min/1e6 cells]	Activity [3]	Activity [4] [µM]	IC50 [5] [nM]	hepatocyte CLint [6] [µL/min/1e6 cells]	logD (physchem)	fraction unbound (Homo sapiens)	Activity [2] [µM]	other results
Cc1ccc2c(c1)c(-c1ccnc3c(S(C)(=O)=O)cccc13)c(C)n2CC(=O)O	–	inactive	> 6	23	–	0.3	0.064	> 6	bioavailability [12]: 5%
Cc1ccc2c(c1)c(-c1ccnc3ccc(C(F)(F)F)cc13)c(C)n2CC(=O)O	16	inactive	> 6	68	–	1.8	–	> 6	–
COc1ccc2c(c1)c(-c1ccnc3cc(Cl)ccc13)c(C)n2CC(=O)O	5	inactive	> 6	50	–	–	0.003	> 6	–
Cc1ccc2c(c1)c(-c1ccnc3ccccc13)c(C)n2CC(=O)O	10.7	inactive	> 6	21	3	–	–	> 6	–
Cc1ccc2c(c1)c(-c1cc(C)nc3ccccc13)c(C)n2CC(=O)O	5	inactive	> 6	18	–	2.9	0.004	> 6	–
COc1ccc2c(c1)c(CC(=O)O)c(C)n2-c1ccnc2cc(Cl)ccc12	6.5	inactive	> 6	180	1.4	1.7	–	> 6	Vd [19]: 2.3 L/kg; clearance [20]: 11 mL/min/kg; half-life [21]: 2.2 h; bioavailability [9]: 62%; IC50 (Cytochrome P450 2C19): 1600 nM; Activity ([22]; filed as antagonist): Antagonist
Cc1ccc2c(-c3ccnc4cc(Cl)ccc34)c(C)n(CC(=O)O)c2c1	–	inactive	> 6	125	–	–	–	> 6	–
Cc1c(CC(=O)O)c2ccccc2n1-c1ccncn1	–	inactive	> 6	5200	–	–	–	> 6	Activity ([22]; filed as partial agonist): Partial agonist

The next lines start with results.

hepatocyte CLint [1] [µL/min/1e6 cells]	Activity [3]	Activity [4] [µM]	IC50 [5] [nM]	hepatocyte CLint [6] [µL/min/1e6 cells]	logD (physchem)	fraction unbound (Homo sapiens)	SMILES	Activity [2] [µM]	other results
< 3	inactive	> 6	18	–	–	–	Cc1ccc2c(c1)c(-c1ccnc3c(C#N)cccc13)c(C)n2CC(=O)O	> 6	–
5.5	inactive	> 6	2.6	1.9	–	–	Cc1ccc2c(c1)c(-c1ccnc3c(C)cccc13)c(C)n2CC(=O)O	> 6	Vss (Rattus norvegicus [7]): 1.4 L/kg; T1/2 (Rattus norvegicus [8]): 1.7 h; bioavailability [9]: 76%; fraction unbound [10]: 0.02; clearance [11]: 1 mL/min/kg; bioavailability [12]: 100%; half-life [13]: 5.3 h; Vd [14]: 0.2 L/kg; IC50 (Cytochrome P450 2C19): 2500 nM; IC50 (Cytochrome P450 2C9): 5000 nM; IC50 [15]: 150 nM; IC50 [16]: 2000 nM; IC50 [17]: 3000 nM; IC50 [18]: 3000 nM
–	inactive	> 6	5.4	–	1.8	0.004	Cc1ccc2c(c1)c(-c1ccnc3cc(C(F)(F)F)ccc13)c(C)n2CC(=O)O	> 6	–
7	inactive	> 6	11	–	0.5	–	COc1cccc2c(-c3c(C)n(CC(=O)O)c4ccc(C)cc34)ccnc12	> 6	bioavailability [12]: 13%
< 3	inactive	> 6	2.3	2	1.3	0.006	Cc1ccc2c(c1)c(-c1ccnc3c(Cl)cccc13)c(C)n2CC(=O)O	> 6	half-life [13]: 2.4 h
6	inactive	> 6	8	3.8	1.6	0.002	Cc1ccc2c(c1)c(-c1ccnc3cc(Cl)ccc13)c(C)n2CC(=O)O	> 6	Vd [19]: 1.4 L/kg; clearance [20]: 6 mL/min/kg; half-life [21]: 6.7 h; fraction unbound [10]: 0.02; IC50 [17]: 400 nM
–	inactive	> 6	6	–	1.3	0.004	Cc1ccc2c(c1)c(-c1ccnc3c(C(F)(F)F)cccc13)c(C)n2CC(=O)O	> 6	–
< 1	inactive	> 6	7.1	1.6	0.5	0.009	Cc1ccc2c(c1)c(-c1ccnc3c(F)cccc13)c(C)n2CC(=O)O	> 6	–
